Results taken from patent US10202361B2, “Pyridazinones as herbicides” (E I DU PONT DE NEMOURS AND COMPANY, priority 2014, dated 2019).

What was measured:
Type in all cases: in vivo
Settings in all cases: scale 0 to 100
[1] = test system: field poppy (Papaver rhoeas); experiment: Test D pre-/postemergence controlled growth environment herbicide test
Excerpt: (§1) Seeds of plant species selected from bluegrass (annual bluegrass, Poa annua), blackgrass (Alopecurus myosuroides), canarygrass (Phalaris minor), chickweed (common chickweed, Stellaria media), galium (catchweed bedstraw, Galium aparine), downy bromegrass (Bromus tectorum), field poppy (Papaver rhoeas), field violet (Viola arvensis), foxtail, green (green foxtail, Setaria viridis), deadnettle (henbit deadnettle, Lamium amplexicaule), ryegrass, Italian (Italian ryegrass, Lolium multiflorum), kochia (Kochia scoparia), lambsquarters (Chenopodium album), oilseed rape (Brassica napus), pigweed (Amaranthus retroflexus), chamomile (scentless chamomile, Matricaria inodora), Russian thistle (Salsola kali), speedwell (bird's-eye speedwell, Veronica persica), barley, spring (spring barley, Hordeum vulgare), wheat, spring (spring wheat, Triticum aestivum), buckwheat, wild (wild buckwheat, Polygonum convolvulus), mustard, wild (wild mustard, Sinapis arvensis), oat, wild (wild oat, Avena fatua), radish, wild (wild radish, Raphanus raphanistrum), windgrass (Apera spica-venti), barley, winter (winter barley, Hordeum vulgare), and wheat, winter (winter wheat, Triticum aestivum) were planted into a silt loam soil and treated preemergence with test chemicals formulated in a non-phytotoxic solvent mixture which included a surfactant.
(§2) At the same time, these species were planted in pots containing Redi-Earth® planting medium (Scotts Company, 14111 Scottslawn Road, Marysville, Ohio 43041) comprising spaghnum peat moss, vermiculite, wetting agent and starter nutrients and treated with postemergence applications of the test chemicals formulated in the same manner. Plants ranged in height from 2 to 18 cm (1- to 4-leaf stage). Treated plants and controls were maintained in a controlled growth environment for 14 to 21 d after which time all species were compared to controls and visually evaluated. Plant response ratings, summarized in Table D, are based on a scale of 0 to 100 where 0 is no effect and 100 is complete control. A dash (-) response means no test result.

[2] = test system: galium (catchweed bedstraw, Galium aparine); experiment: as above
Excerpt: as §1, §2

[3] = test system: windgrass (Apera spica-venti); experiment: as above
Excerpt: as §1, §2

[4] = test system: deadnettle (henbit deadnettle, Lamium amplexicaule); experiment: as above
Excerpt: as §1, §2

[5] = test system: mustard, wild (wild mustard, Sinapis arvensis); experiment: as above
Excerpt: as §1, §2

[6] = test system: downy bromegrass (Bromus tectorum); experiment: as above
Excerpt: as §1, §2

[7] = test system: buckwheat, wild (wild buckwheat, Polygonum convolvulus); experiment: as above
Excerpt: as §1, §2

kochia (Kochia scoparia) = experiment: as above
Excerpt: as §1, §2

[8] = test system: wheat, winter (winter wheat, Triticum aestivum); experiment: as above
Excerpt: as §1, §2

[9] = test system: pigweed (Amaranthus retroflexus); experiment: as above
Excerpt: as §1, §2

[10] = test system: poinsettia, wild (wild poinsettia, Euphorbia heterophylla); experiment: Test E pre-/postemergence greenhouse herbicide test

SMILES: Cc1cc(=O)n(-c2ccc(F)cc2)nc1Oc1ccnc(C(F)(F)F)c1 [Compound 14, 2-(4-fluorophenyl)-5-methyl-6-[[2-(trifluoromethyl)-4-pyridinyl]oxy]-3 (2H)-pyridazinone]
- Plant response rating ([1]; Postemergence, 16 g ai/ha): 75
- Plant response rating ([1]; Postemergence, 31 g ai/ha): 20
- Plant response rating ([1]; Postemergence, 62 g ai/ha): 75
- Plant response rating ([1]; Postemergence, 125 g ai/ha): 50
- Plant response rating ([1]; Postemergence, 250 g ai/ha): 80
- Plant response rating ([1]; Preemergence, 16 g ai/ha): 95
- Plant response rating ([1]; Preemergence, 31 g ai/ha): 100
- Plant response rating ([1]; Preemergence, 62 g ai/ha): 100
- Plant response rating ([1]; Preemergence, 125 g ai/ha): 100
- Plant response rating ([1]; Preemergence, 250 g ai/ha): 100
- Plant response rating ([2]; Postemergence, 16 g ai/ha): 60
- Plant response rating ([2]; Postemergence, 31 g ai/ha): 60
- Plant response rating ([2]; Postemergence, 62 g ai/ha): 60
- Plant response rating ([2]; Postemergence, 125 g ai/ha): 65
- Plant response rating ([2]; Postemergence, 250 g ai/ha): 75
- Plant response rating ([2]; Preemergence, 16 g ai/ha): 0
- Plant response rating ([2]; Preemergence, 31 g ai/ha): 0
- Plant response rating ([2]; Preemergence, 62 g ai/ha): 0
- Plant response rating ([2]; Preemergence, 125 g ai/ha): 5
- Plant response rating ([3]; Postemergence, 16 g ai/ha): 5
- Plant response rating ([3]; Postemergence, 31 g ai/ha): 5
- Plant response rating ([3]; Postemergence, 62 g ai/ha): 10
- Plant response rating ([3]; Postemergence, 125 g ai/ha): 10
- Plant response rating ([3]; Postemergence, 250 g ai/ha): 60
- Plant response rating ([3]; Preemergence, 16 g ai/ha): 10
- Plant response rating ([3]; Preemergence, 31 g ai/ha): 5
- Plant response rating ([3]; Preemergence, 62 g ai/ha): 5
- Plant response rating ([3]; Preemergence, 125 g ai/ha): 35
- Plant response rating ([3]; Preemergence, 250 g ai/ha): 65
- Plant response rating ([4]; Postemergence, 16 g ai/ha): 50
- Plant response rating ([4]; Postemergence, 31 g ai/ha): 60
- Plant response rating ([4]; Postemergence, 62 g ai/ha): 60
- Plant response rating ([4]; Postemergence, 125 g ai/ha): 65
- Plant response rating ([4]; Postemergence, 250 g ai/ha): 80
- Plant response rating ([4]; Preemergence, 16 g ai/ha): 60
- Plant response rating ([4]; Preemergence, 31 g ai/ha): 15
- Plant response rating ([4]; Preemergence, 62 g ai/ha): 40
- Plant response rating ([4]; Preemergence, 125 g ai/ha): 65
- Plant response rating ([4]; Preemergence, 250 g ai/ha): 100
- Plant response rating ([5]; Postemergence, 16 g ai/ha): 65
- Plant response rating ([5]; Postemergence, 31 g ai/ha): 60
- Plant response rating ([5]; Postemergence, 62 g ai/ha): 65
- Plant response rating ([5]; Postemergence, 125 g ai/ha): 75
- Plant response rating ([5]; Postemergence, 250 g ai/ha): 95
- Plant response rating ([5]; Preemergence, 16 g ai/ha): 30
- Plant response rating ([5]; Preemergence, 31 g ai/ha): 35
- Plant response rating ([5]; Preemergence, 62 g ai/ha): 40
- Plant response rating ([5]; Preemergence, 125 g ai/ha): 100
- Plant response rating ([5]; Preemergence, 250 g ai/ha): 100
- Plant response rating ([6]; Postemergence, 16 g ai/ha): 10
- Plant response rating ([6]; Postemergence, 31 g ai/ha): 10
- Plant response rating ([6]; Postemergence, 62 g ai/ha): 10
- Plant response rating ([6]; Postemergence, 125 g ai/ha): 20
- Plant response rating ([6]; Postemergence, 250 g ai/ha): 20
- Plant response rating ([6]; Preemergence, 16 g ai/ha): 0
- Plant response rating ([6]; Preemergence, 31 g ai/ha): 0
- Plant response rating ([6]; Preemergence, 62 g ai/ha): 0
- Plant response rating ([6]; Preemergence, 125 g ai/ha): 0
- Plant response rating ([6]; Preemergence, 250 g ai/ha): 0
- Plant response rating ([7]; Postemergence, 16 g ai/ha): 55
- Plant response rating ([7]; Postemergence, 31 g ai/ha): 55
- Plant response rating ([7]; Postemergence, 62 g ai/ha): 75
- Plant response rating ([7]; Postemergence, 125 g ai/ha): 70
- Plant response rating ([7]; Postemergence, 250 g ai/ha): 70
- Plant response rating ([7]; Preemergence, 16 g ai/ha): 15
- Plant response rating ([7]; Preemergence, 31 g ai/ha): 15
- Plant response rating ([7]; Preemergence, 62 g ai/ha): 25
- Plant response rating ([7]; Preemergence, 125 g ai/ha): 25
- Plant response rating ([7]; Preemergence, 250 g ai/ha): 100
- Plant response rating (kochia (Kochia scoparia); Postemergence, 16 g ai/ha): 60
- Plant response rating (kochia (Kochia scoparia); Postemergence, 31 g ai/ha): 60
- Plant response rating (kochia (Kochia scoparia); Postemergence, 62 g ai/ha): 65
- Plant response rating (kochia (Kochia scoparia); Postemergence, 125 g ai/ha): 85
- Plant response rating (kochia (Kochia scoparia); Postemergence, 250 g ai/ha): 90
- Plant response rating (kochia (Kochia scoparia); Preemergence, 16 g ai/ha): 35
- Plant response rating (kochia (Kochia scoparia); Preemergence, 31 g ai/ha): 65
- Plant response rating (kochia (Kochia scoparia); Preemergence, 62 g ai/ha): 95
- Plant response rating (kochia (Kochia scoparia); Preemergence, 125 g ai/ha): 70
- Plant response rating (kochia (Kochia scoparia); Preemergence, 250 g ai/ha): 100
- Plant response rating ([8]; Postemergence, 16 g ai/ha): 5
- Plant response rating ([8]; Postemergence, 31 g ai/ha): 10
- Plant response rating ([8]; Postemergence, 62 g ai/ha): 15
- Plant response rating ([8]; Postemergence, 125 g ai/ha): 15
- Plant response rating ([8]; Postemergence, 250 g ai/ha): 15
- Plant response rating ([8]; Preemergence, 16 g ai/ha): 0
- Plant response rating ([8]; Preemergence, 31 g ai/ha): 5
- Plant response rating ([8]; Preemergence, 62 g ai/ha): 5
- Plant response rating ([8]; Preemergence, 125 g ai/ha): 5
- Plant response rating ([8]; Preemergence, 250 g ai/ha): 10
- Plant response rating ([9]; Postemergence, 16 g ai/ha): 60
- Plant response rating ([9]; Postemergence, 31 g ai/ha): 60
- Plant response rating ([9]; Postemergence, 62 g ai/ha): 70
- Plant response rating ([9]; Postemergence, 125 g ai/ha): 75
- Plant response rating ([9]; Postemergence, 250 g ai/ha): 75
- Plant response rating ([9]; Preemergence, 16 g ai/ha): 35
- Plant response rating ([9]; Preemergence, 31 g ai/ha): 95
- Plant response rating ([9]; Preemergence, 62 g ai/ha): 75
- Plant response rating ([9]; Preemergence, 125 g ai/ha): 100
- Plant response rating ([9]; Preemergence, 250 g ai/ha): 100

SMILES: COc1cc(=O)n(-c2ccc(C(F)(F)F)cc2)nc1Cc1ccnc(C(F)(F)F)c1 [Compound 16, 5-methoxy-2-[4-(trifluoromethyl)phenyl]-6-[[2-(trifluoromethyl)-4-pyridinyl]methyl]-3(2H)-pyridazinone]
- Plant response rating: Poinsettia, Wild ([10]; Postemergence, 62 g ai/ha): 60
- Plant response rating: Poinsettia, Wild ([10]; Postemergence, 125 g ai/ha): 70
- Plant response rating: Poinsettia, Wild ([10]; Postemergence, 250 g ai/ha): 75
- Plant response rating: Poinsettia, Wild ([10]; Preemergence, 62 g ai/ha): 35
- Plant response rating: Poinsettia, Wild ([10]; Preemergence, 125 g ai/ha): 35
- Plant response rating: Poinsettia, Wild ([10]; Preemergence, 250 g ai/ha): 65

SMILES: CCOc1cc(=O)n(-c2ccc(F)cc2)nc1Cc1ccnc(C(F)(F)F)c1 [Compound 25, 5-ethoxy-2-(4-fluorophenyl)-6-[[2-(trifluoromethyl)-4-pyridinyl]methyl]-3 (2H)-pyridazinone]
- Plant response rating: Poinsettia, Wild ([10]; Preemergence, 8 g ai/ha): 0
- Plant response rating: Poinsettia, Wild ([10]; Preemergence, 16 g ai/ha): 0
- Plant response rating: Poinsettia, Wild ([10]; Preemergence, 31 g ai/ha): 0
- Plant response rating: Poinsettia, Wild ([10]; Preemergence, 62 g ai/ha): 50
- Plant response rating: Poinsettia, Wild ([10]; Preemergence, 125 g ai/ha): 10
